In patent US20250011778A1, “APP iRNA Compositions and Methods of Use Thereof for Treating or Preventing Diseases Characterized by Enlarged Endosomes” (ALNYLAM PHARMACEUTICALS, INC., priority 2021, published 2025):
“Also recorded” adds a separate entry of the source.

Legend:
Format in all cases: in vivo
[1] = tested on: glutamate (Glu) and N-acetylaspartate (NAA); assay: CVN mouse study, metabolites by 1H-MRS; conditions: 1H-MRS at 12 months of age (6 months post-dose)
From the text: (§1) Male and female CVN mice were bred at CRL Germany and genotyped, housed, dosed and analyzed (IHC, ^1H-MRS and open field test) at CRL Finland, as previously reported, under regular temperature, humidity and light/dark cycle conditions (Wilcock et al. J. Neurosci. 28: 1537-1545; Colton et al. J. Neuropathol. Exp. Neurol. 73: 752-769; Kohonen et al. Nat. Commun. 8: 15932). Homozygous Tg-hAPP^SwDI/mNos2^−/− (CVN) mice were produced by crossing mice expressing the vasculotropic Swedish K670N/M671L, Dutch E693Q and Iowa D694N human APP mutations under control of the Thy-1 promoter (Davis et al. J. Biol. Chem. 279: 20296-20306) with mNos2^−/− (B6 129PNos2 tau1Lau/J) mice (Laubach et al. Am. J. Physiol. 275: H2211-H2218). The study was divided into two phases. In the first phase, 15 CVN mice were dosed by ICV at 3 months of age, with terminal tissue sampling at 6 months of age and 9 months of age. In the second phase, 40 CVN mice and 20 WT mice were divided into three experimental groups, with terminal tissue sampling at 9 months of age and 12 months of age. […] Mice were placed in the center of the chamber, and their behaviors were recorded for 30 minutes. The following parameters were recorded and analyzed: distance traveled, number of vertical rearings and average velocity. […]

sAPPα protein = assay: CVN mouse study, sAPPα protein after ICV dose; conditions: single 60 μg ICV, CSF
From the text: as §1

APP mRNA = assay: CVN mouse study, APP mRNA knockdown after ICV dose
From the text: Male and female CVN mice were bred at CRL Germany and genotyped, housed, dosed and analyzed (IHC, ^1H-MRS and open field test) at CRL Finland, as previously reported, under regular temperature, humidity and light/dark cycle conditions (Wilcock et al. J. Neurosci. 28: 1537-1545; Colton et al. J. Neuropathol. Exp. Neurol. 73: 752-769; Kohonen et al. Nat. Commun. 8: 15932). Homozygous Tg-hAPP^SwDI/mNos2^−/− (CVN) mice were produced by crossing mice expressing the vasculotropic Swedish K670N/M671L, Dutch E693Q and Iowa D694N human APP mutations under control of the Thy-1 promoter (Davis et al. J. Biol. Chem. 279: 20296-20306) with mNos2^−/− (B6 129PNos2 tau1Lau/J) mice (Laubach et al. Am. J. Physiol. 275: H2211-H2218). The study was divided into two phases. In the first phase, 15 CVN mice were dosed by ICV at 3 months of age, with terminal tissue sampling at 6 months of age and 9 months of age. In the second phase, 40 CVN mice and 20 WT mice were divided into three experimental groups, with terminal tissue sampling at 9 months of age and 12 months of age. Metabolic analyses using ^1H-MRS were at 12 months of age, respectively, as previously described (Colton et al. J. Neuropathol. Exp. Neurol. 73: 752-769). Open field test measurements were performed at approximately 9 months of age. Activity chambers (Med Associates, 27×27×20.3 cm) were equipped with infrared beams. Mice were placed in the center of the chamber, and their behaviors were recorded for 30 minutes. The following parameters were recorded and analyzed: distance traveled, number of vertical rearings and average velocity. IHC was performed as described (Wilcock et al. J. Neurosci. 28: 1537-1545; Kan et al. J Neurosci. 35: 5969-5982) using anti-amyloid-beta antibody WO2 (Sigma-Aldrich, MABN10, lot 3557956, 1:500) and anti-IBA1 antibody (Wako Pure Chemicals, 01-1941, lot LEP3218, 1:200). All data are presented as mean±standard deviation or standard error of the mean, and differences were statistically significant at the P<0.05 level. Statistical analyses were performed using the PRISM statistical program (GraphPad Software).
ICV administration was performed using stereotaxically guided Hamilton syringe and infusion system (Harvard Apparatus). A single 5-μl unilateral injection was performed in the right lateral ventricle at the following coordinates: AP=−0.5 mm (posterior from bregma), ML=+1.0 mm and DV=−1.75 mm, using standard aseptic surgical procedures. After midline skin incision on the scalp, a burr hole was generated at selected coordinates using stereotaxic coordinates and a dental drill. Thereafter, a small puncture in the dura was made at the epicenter of the burr hole, and the needle was lowered to specified depth to reach the lateral ventricle. A Hamilton syringe with a 28-gauge blunt needle was filled with a volume slightly greater than 5 μl. Administration volume of the test articles was at 5 μl and infusion rate at 1 μl min^−1 (over 5 minutes). After the infusion, the needle was left in place for a stabilization period of 5 minutes before withdrawal from the ventricle. Withdrawal was performed slowly and paused for 30 seconds when the needle tip was at the cortical area. […]

IBA1 = assay: CVN mouse study, inflammation (IBA1 IHC and Iba1 qPCR)
From the text: as §1

AB40 deposits = assay: CVN mouse study, Aβ40 (AB40) deposits by IHC; conditions: 6 months after dose, dosed pre-symptomatically, not significant (n=2-4)
From the text: as §1

CVN mice = assay: CVN mouse study, open field test; conditions: vs WT
From the text: as §1

## AD-454972: APP-targeting C16-siRNA; sense usasuga(Ahd)GfuUfCfAfucaucaaasasa, antisense VPusUfsuuug(Agn)ugaugaAfcUfucauasusc; SEQ 1435/1440 (sense UAUGAAGUUCAUCAUCAAAAA; antisense UUUUUGAUGAUGAACUUCAUAUC; C16 conjugate, chemical modifications, chemistry not fully specified)
[1]
  N-acetylaspartate (NAA) levels: little effect
[1]; vs WT
  glutamate (Glu) levels: normalization; also recorded: normalized
sAPPα protein
  reduction of sAPPα protein: 50%
APP mRNA; after 3 months
  reduction of APP mRNA in the cortex: approximately 25%
APP mRNA; single 60 μg ICV, ventral cortex (VC)
  reduction of APP mRNA: 50%
APP mRNA; single 120 μg ICV, 30 days post-dose, VC
  reduction of APP mRNA: ~75%
APP mRNA; single 120 μg ICV, 60 days post-dose, VC
  reduction of APP mRNA: > 50%
APP mRNA; single 120 μg ICV, 90 days, VC
  APP mRNA level: normalizing
IBA1; after 6 months
  reduction of Iba1 mRNA expression: 20-30%
IBA1; cortex and hippocampus, rate of increase over time
  IBA1 IHC intensity: significantly slower rate of increase
AB40 deposits
  reduction of AB40 deposits: approximately 50%
CVN mice
  rearing frequency: normalization; also recorded: normalized
  total distance traveled: normalization; also recorded: normalized
